# Test results reported in patent US11149036B2, “3-(1H-pyrazol-4-yl)pyridine allosteric modulators of the M4 muscarinic acetylcholine receptor” (Merck Sharp & Dohme Corp., priority 2017, dated 2021).
# pEC50: −log10 of the molar value.
# Biological target: T1, human M4 muscarinic acetylcholine receptor (Homo sapiens, UniProt P08173)
# T1 construct: expressed in transfected cells; host or cells: CHO-K1
# T1 sequence (P08173 1-479): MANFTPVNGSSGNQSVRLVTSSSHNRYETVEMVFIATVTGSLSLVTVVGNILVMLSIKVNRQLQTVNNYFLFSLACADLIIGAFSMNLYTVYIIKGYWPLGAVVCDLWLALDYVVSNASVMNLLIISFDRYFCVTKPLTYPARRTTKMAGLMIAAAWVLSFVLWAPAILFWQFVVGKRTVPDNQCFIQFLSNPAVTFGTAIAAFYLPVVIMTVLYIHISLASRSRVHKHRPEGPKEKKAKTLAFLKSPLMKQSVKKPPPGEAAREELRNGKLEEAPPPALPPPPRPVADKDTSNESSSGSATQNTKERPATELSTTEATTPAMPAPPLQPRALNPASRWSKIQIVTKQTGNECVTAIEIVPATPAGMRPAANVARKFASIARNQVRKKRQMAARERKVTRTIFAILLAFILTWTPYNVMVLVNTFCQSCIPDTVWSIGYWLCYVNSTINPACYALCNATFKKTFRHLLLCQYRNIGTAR
# Assay: human FLIPR-based M4 PAM assay (CHO-K1 cells with human M4 receptor and Gaqi5, calcium dye fluorescence)
# Type: cell-based
# Details: inflection point (IP) of dose response curve, acetylcholine added at 20% of maximum response, read-out: M4 FLIPPR Hu IP
# How it was run: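 CHO-K1 cells stably expressing human M4 with chimeric Gaqi5, calcium-dye loaded ~1 h at 37° C; compound added at increasing concentrations 4 min before acetylcholine at an EC20 concentration (sometimes a further EC70 addition).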
row,pEC50,Compound
1,7.77,"COc1cc2ccc(-c3nc(C)c(C#N)cc3-c3cnn(CC4(C)CCCC4)c3)cc2nn1 [Example 105, 6-(3-methoxycinnolin-7-yl)-2-methyl-5-(1-((1-methylcyclopentyl)methyl)-1H-pyrazol-4-yl)nicotinonitrile]"
2,7.09,"Cc1nc(-c2cnc3c(c2)ncn3C)c(-c2cnn(CC3(C)CCCC3)c2)cc1C#N [Example 106, 2-methyl-6-(3-methyl-3H-imidazo[4,5-b]pyridin-6-yl)-5-(1-((1-methylcyclopentyl)methyl)-1H-pyrazol-4-yl)nicotinonitrile]"
3,7.44,"Cn1cnc2cc(-c3nccc(F)c3-c3cnn(CC4(C)CCCC4)c3)cnc21 [Example 107, 6-(4-fluoro-3-(1-((1-methylcyclopentyl)methyl)-1H-pyrazol-4-yl)pyridin-2-yl)-3-methyl-3H-imidazo[4,5-b] pyridine]"
4,7.07,"Cn1cnc2cc(-c3nc(C(F)F)ccc3-c3cnn(CC4(F)CCCC4)c3)cnc21 [Example 108, 6-(6-(difluoromethyl)-3-(1-((1-fluorocyclopentyl)methyl)-1H-pyrazol-4-yl)pyridin-2-yl)-3-methyl-3H-imidazo[4,5-b] pyridine]"
5,7.16,"Cn1cnc2cc(-c3ncc(Cl)cc3-c3cnn(CC4(C)CCCC4)c3)cnc21 [Example 109, 6-(5-chloro-3-(1-((1-methylcyclopentyl)methyl)-1H-pyrazol-4-yl)pyridin-2-yl)-3-methyl-3H-imidazo[4,5-b] pyridine]"
6,7.64,"Cc1cn2ccc(-c3ncc(Cl)cc3-c3cnn(CC4(F)CCCC4)c3)cc2n1 [Example 110, 7-(5-chloro-3-(1-((1-fluorocyclopentyl)methyl)-1H-pyrazol-4-yl)pyridin-2-yl)-2-methylimidazo[1,2-a] pyridine]"
7,7.42,"FC(F)c1cn2ccc(-c3ncc(Cl)cc3-c3cnn(CC4(F)CCCC4)c3)cc2n1 [Example 111, 7-(5-chloro-3-(1-((1-fluorocyclopentyl)methyl)-1H-pyrazol-4-yl)pyridin-2-yl)-2-(difluoromethyl)imidazo [1,2-a]pyridine]"
8,7.34,"Cc1cnc(-c2ccn3ccnc3c2)c(-c2cnn(CC3(C)CCCC3)c2)c1 [Example 112, 7-(5-methyl-3-(1-((1-methylcyclopentyl)methyl)-1H-pyrazol-4-yl)pyridin-2-yl)imidazo[1,2-a] pyridine]"
9,7.10,"Cc1cnc(-c2ccn3ncnc3c2)c(-c2cnn(CC3(C)CCCC3)c2)c1 [Example 113, 7-(5-methyl-3-(1-((1-methylcyclopentyl)methyl)-1H-pyrazol-4-yl)pyridin-2-yl)-[1,2,4]triazolo[1,5-a] pyridine]"
10,6.85,"COc1nc(-c2ccn3cc(C)nc3c2)c(-c2cnn(CC3(F)CCCC3)c2)cc1F [Example 114, 7-(5-fluoro-3-(1-((1-fluorocyclopentyl)methyl)-1H-pyrazol-4-yl)-6-methoxypyridin-2-yl)-2-methylimidazo[1,2-a]pyridine]"
11,7.68,"Cc1cn2ccc(-c3nc(Cl)ccc3-c3cnn(CC4(C)CCCC4)c3)cc2n1 [Example 115, 7-(6-chloro-3-(1-((1-methylcyclopentyl)methyl)-1H-pyrazol-4-yl)pyridin-2-yl)-2-methylimidazo[1,2-a] pyridine]"
12,7.21,"Cc1cc(-c2cnn(CC3(F)CCCC3)c2)c(-c2cnc3c(c2)C(=O)N(CC2CC2)C3)nc1Cl [Example 116, 3-(6-chloro-3-(1-((1-fluorocyclopentyl)methyl)-1H-pyrazol-4-yl)-5-methylpyridin-2-yl)-6-(cyclopropylmethyl)-6,7-dihydro-5H-pyrrolo [3,4-b]pyridin-5-one]"
13,7.35,"Cc1cc(-c2cnn(CC3(F)CCCC3)c2)c(-c2cnc3c(c2)ncn3C)nc1Cl [Example 117, 6-(6-chloro-3-(1-((1-fluorocyclopentyl)methyl)-1H-pyrazol-4-yl)-5-methylpyridin-2-yl)-3-methyl-3H-imidazo[4,5-b]pyridine]"
14,7.32,"Cc1cc(-c2cnn(CC3(F)CCCC3)c2)c(-c2ccn3cnnc3c2)nc1Cl [Example 118, 7-(6-chloro-3-(1-((1-fluorocyclopentyl)methyl)-1H-pyrazol-4-yl)-5-methylpyridin-2-yl)-[1,2,4]triazolo[4,3-a]pyridine]"
15,8.30,"COc1cc2ccc(-c3nc(Cl)c(C)cc3-c3cnn(CC4(C)CCCC4)c3)cc2nn1 [Example 119, 7-(6-chloro-5-methyl-3-(1-((1-methylcyclopentyl)methyl)-1H-pyrazol-4-yl)pyridin-2-yl)-3-methoxycinnoline]"
16,7.36,"Cn1cnc2cc(-c3nc(C(F)F)ccc3-c3cnn(C[C@H]4CC[C@H](F)C4)c3)ccc21 [Example 120, 5-(6-(difluoromethyl)-3-(1-(((1S,3S)-3-fluorocyclopentyl)methyl)-1H-pyrazol-4-yl)pyridin-2-yl)-1-methyl-1H-benzo[d] imidazole]"
17,7.30,"Cn1cnc2cc(-c3nc(C(F)F)ccc3-c3cnn(C[C@@H]4CC[C@@H](F)C4)c3)ccc21 [Example 121, 5-(6-(difluoromethyl)-3-(1-(((1R,3R)-3-fluorocyclopentyl)methyl)-1H-pyrazol-4-yl)pyridin-2-yl)-1-methyl-1H-benzo[d] imidazole]"
18,7.23,"COc1cc2ccc(-c3nc(C(F)F)ccc3-c3cnn(C[C@@H]4CC[C@@H](F)C4)c3)cc2nn1 [Example 122, 7-(6-(difluoromethyl)-3-(1-(((1R,3R)-3-fluorocyclopentyl)methyl)-1H-pyrazol-4-yl)pyridin-2-yl)-3-methoxycinnoline]"
19,7.20,"COc1cc2ccc(-c3nc(C(F)F)ccc3-c3cnn(C[C@H]4CC[C@H](F)C4)c3)cc2nn1 [Example 123, 7-(6-(difluoromethyl)-3-(1-(((1S,3S)-3-fluorocyclopentyl)methyl)-1H-pyrazol-4-yl)pyridin-2-yl)-3-methoxy-cinnoline]"
20,7.57,"Cn1nnc2cc(-c3nc(C#N)ccc3-c3cnn(CC4(C)CCCC4)c3)ccc21 [Example 124, 6-(1-methyl-1H-benzo[d][1,2,3]triazol-5-yl)-5-(1-((1-methylcyclopentyl)methyl)-1H-pyrazol-4-yl)picolinonitrile]"
21,7.12,"Cn1nc2ccc(-c3nc(C#N)ccc3-c3cnn(CC4(C)CCCC4)c3)cc2n1 [Example 125, 6-(2-methyl-2H-benzo[d][1,2,3]triazol-5-yl)-5-(1-((1-methylcyclopentyl)methyl)-1H-pyrazol-4-yl)picolinonitrile]"
22,7.11,"CC1(Cn2cc(-c3ccc(C#N)nc3-c3ccc4ccc(Cl)nc4c3)cn2)CCCC1 [Example 126, 6-(2-chloro-quinolin-7-yl)-5-(1-((1-methylcyclo-pentyl)methyl)-1H-pyrazol-4-yl)picolinonitrile]"
23,7.59,"CC1(Cn2cc(-c3ccc(C#N)nc3-c3ccc4cc(Cl)nnc4c3)cn2)CCCC1 [Example 127, 6-(3-chlorocinnolin-7-yl)-5-(1-((1-methylcyclopentyl)methyl)-1H-pyrazol-4-yl)picolinonitrile]"
24,7.46,"CC1(Cn2cc(-c3ccc(C#N)nc3-c3ccc4cc(F)nnc4c3)cn2)CCCC1 [Example 128, 6-(3-fluorocinnolin-7-yl)-5-(1-((1-methylcyclopentyl)methyl)-1H-pyrazol-4-yl)picolinonitrile]"
